The values below come from US11091497B2, “Pyrano[3,4-b]pyrazine kappa opioid receptor ligands for treating addiction, pruritus, pain, and inflammation” (The Rockefeller University, priority 2017, dated 2021).

Assay [1] has as its target T1, kappa opioid receptor (PathHunter U2OS hOPRK1 β-arrestin cell line) (Homo sapiens, UniProt P41145).
T1 construct: host or cells: U2OS (PathHunter U2OS hOPRK1 β-arrestin cell line)
Description: β-arrestin coupling (PathHunter Detection Kit). The format is cell-based. The conditions noted are these: for Emax at 10 µM: U2OS, read-out: β-arrestin coupling % efficacy at 10 μM. The procedure: (§1) Membranes from cells stably expressing kappa, mu or delta opioid receptor constructs (PathHunter U2OS hOPRK1, CHO-K1 rOPRM1 and CHO-K1 OPRD1 β-arrestin cell line, DiscoverX, Fremont, Calif., USA) were used. Cells were scraped from tissue culture plates, homogenized with a tissue tearor homogenizer in membrane buffer (10 mM Tris, 100 mM NaCl, and 1 mM EDTA; pH 7.4), and centrifuged at 20,000 g for 30 minutes at 4° C. and frozen at −80° C. until use. Prior to use, the pellets were resuspended in binding buffer (50 mm Tris, 100 mm NaCl, pH 7.4), homogenized with a dounce homogenizer and […] incubated with 1.0 nM of the appropriate tritiated ligand ([^3H]U69,593, [^3H]DAMGO or [^3H]DPDPE for kappa, mu or delta binding, respectively) and the appropriate concentration of compound for 60 minutes at 30° C. Membranes with bound tritiated ligand were collected on Whatman GF/B filter paper (Brandel, Gaithersburg, Md., USA) utilizing a Brandel harvester. Bound tritiated ligand was quantified using a TriCarb-2900TR scintillation counter (Packard, Downers Grove, Ill., USA) following addition of 4 ml ReadySafe scintillation fluid (Beckman Coulter, Indianapolis, Ind., USA). Compiled data for each compound was normalized to the maximal binding in the absence of compound, with non-specific binding subtracted. Curve fitting was done in Microcal Origin 17.0 software using logistic sigmoidal fit, to determine IC50. GTPgammaS Membranes from U2OS cells stably expressing human kappa opioid receptors were used. Cells were scraped from tissue culture plates, homogenized with a tissue tearor homogenizer in membrane buffer (10 mM Tris, 100 mM NaCl, and 1 mM EDTA; pH 7.4), and centrifuged at 20,000 g for 30 minutes at 4° C. and frozen at −80° C. until use. Prior to use, the pellets were resuspended in assay buffer (50 mm Tris, 100 mm NaCl, 5 mM MgCl2, and 1 mM EDTA; pH 7.4) and homogenized with a dounce homogenizer and 50 μg incubated with 0.1 nM [35 S]GTPγS, 10 nM GDP, and the appropriate concentration of agonist for 20 minutes at 30° C. To test inhibition, all samples were incubated with 100 nM U69,593 as well as the appropriate concentration of compound. Membranes with bound [35 S]GTPγS were collected on Whatman GF/B filter paper (Brandel, Gaithersburg, Md., USA) utilizing a Brandel harvester. Bound [35 S]GTPγS was quantified using a TriCarb-2900TR scintillation counter (Packard, Downers Grove, Ill., USA) following addition of 4 mL ReadySafe scintillation fluid (Beckman Coulter, Indianapolis, Ind., USA). […] NA indicates not applicable. For each compound, curve fitting was done in Microcal Origin 17.0 software using logistic sigmoidal fit, to determine EC50 and maximal percent stimulation, which in turn was normalized to the maximal percent stimulation of the test full agonist compound U69,593 to determine % efficacy. β2-Arrestin Experiments were conducted using the PathHunter Detection Kit obtained from DiscoverX. Cells stably expressing kappa, mu or delta opioid receptor constructs (PathHunter U2OS hOPRK1, CHO-K1 rOPRM1 and CHO-K1 OPRD1 β-arrestin cell line, DiscoverX, Fremont, Calif., USA) were plated in 96- or 384-well plates. Cells were stimulated with the compounds for 90 minutes at 37° C. To test inhibition, all samples were incubated with 100 nM U69,593 as well as the appropriate concentration of compound. Cells were then incubated for 60 minutes in the presence of galoctosidase substrate, yielding chemiluminescent product. Chemiluminescence was measured using a Synergy Neo microplate reader (BioTek, Winooski, Vt., USA). Antagonism assays were done in the same manner, in the presence of 300 nM U69,593, 1 μM DAMGO or 1 μM DPDPE for KOP-R, MOP-R or DOP-R assays, respectively. […] NA indicates not applicable. […]

Assay [2] addresses T2, human kappa opioid receptors (Homo sapiens, UniProt P41145).
T2 construct: expressed in transfected cells; host or cells: U2OS
The assay can be described thus: [35S]GTPγS stimulation, membranes from U2OS cells. It is filed as biochemical. Particulars: for Emax: read-out: GTPγS stimulation % efficacy. The procedure:
Membranes from cells stably expressing kappa, mu or delta opioid receptor constructs (PathHunter U2OS hOPRK1, CHO-K1 rOPRM1 and CHO-K1 OPRD1 β-arrestin cell line, DiscoverX, Fremont, Calif., USA) were used. Cells were scraped from tissue culture plates, homogenized with a tissue tearor homogenizer in membrane buffer (10 mM Tris, 100 mM NaCl, and 1 mM EDTA; pH 7.4), and centrifuged at 20,000 g for 30 minutes at 4° C. and frozen at −80° C. until use. Prior to use, the pellets were resuspended in binding buffer (50 mm Tris, 100 mm NaCl, pH 7.4), homogenized with a dounce homogenizer and […] incubated with 1.0 nM of the appropriate tritiated ligand ([^3H]U69,593, [^3H]DAMGO or [^3H]DPDPE for kappa, mu or delta binding, respectively) and the appropriate concentration of compound for 60 minutes at 30° C. Membranes with bound tritiated ligand were collected on Whatman GF/B filter paper (Brandel, Gaithersburg, Md., USA) utilizing a Brandel harvester. Bound tritiated ligand was quantified using a TriCarb-2900TR scintillation counter (Packard, Downers Grove, Ill., USA) following addition of 4 ml ReadySafe scintillation fluid (Beckman Coulter, Indianapolis, Ind., USA). Compiled data for each compound was normalized to the maximal binding in the absence of compound, with non-specific binding subtracted. Curve fitting was done in Microcal Origin 17.0 software using logistic sigmoidal fit, to determine IC50. GTPgammaS Membranes from U2OS cells stably expressing human kappa opioid receptors were used. Cells were scraped from tissue culture plates, homogenized with a tissue tearor homogenizer in membrane buffer (10 mM Tris, 100 mM NaCl, and 1 mM EDTA; pH 7.4), and centrifuged at 20,000 g for 30 minutes at 4° C. and frozen at −80° C. until use. Prior to use, the pellets were resuspended in assay buffer (50 mm Tris, 100 mm NaCl, 5 mM MgCl2, and 1 mM EDTA; pH 7.4) and homogenized with a dounce homogenizer and 50 μg incubated with 0.1 nM [35 S]GTPγS, 10 nM GDP, and the appropriate concentration of agonist for 20 minutes at 30° C. To test inhibition, all samples were incubated with 100 nM U69,593 as well as the appropriate concentration of compound. Membranes with bound [35 S]GTPγS were collected on Whatman GF/B filter paper (Brandel, Gaithersburg, Md., USA) utilizing a Brandel harvester. Bound [35 S]GTPγS was quantified using a TriCarb-2900TR scintillation counter (Packard, Downers Grove, Ill., USA) following addition of 4 mL ReadySafe scintillation fluid (Beckman Coulter, Indianapolis, Ind., USA). […] For each compound, curve fitting was done in Microcal Origin 17.0 software using logistic sigmoidal fit, to determine EC50 and maximal percent stimulation, which in turn was normalized to the maximal percent stimulation of the test full agonist compound U69,593 to determine % efficacy. β2-Arrestin Experiments were conducted using the PathHunter Detection Kit obtained from DiscoverX. Cells stably expressing kappa, mu or delta opioid receptor constructs (PathHunter U2OS hOPRK1, CHO-K1 rOPRM1 and CHO-K1 OPRD1 β-arrestin cell line, DiscoverX, Fremont, Calif., USA) were plated in 96- or 384-well plates. Cells were stimulated with the compounds for 90 minutes at 37° C. To test inhibition, all samples were incubated with 100 nM U69,593 as well as the appropriate concentration of compound. Cells were then incubated for 60 minutes in the presence of galoctosidase substrate, yielding chemiluminescent product. Chemiluminescence was measured using a Synergy Neo microplate reader (BioTek, Winooski, Vt., USA). Antagonism assays were done in the same manner, in the presence of 300 nM U69,593, 1 μM DAMGO or 1 μM DPDPE for KOP-R, MOP-R or DOP-R assays, respectively.

The target in assay [3] is T3, kappa opioid receptor (PathHunter U2OS hOPRK1 membranes) (Homo sapiens, UniProt P41145).
T3 construct: host or cells: U2OS (PathHunter U2OS hOPRK1 β-arrestin cell line)
Description: Tritiated U69,593 binding for KOP-R membranes. The procedure:
Tritiated U69,593 binding for KOP-R membranes; tritiated DAMGO binding for MOP-R membranes; and tritiated DPDPE binding for DOP-R membranes:
as §1

Each structure is given as a SMILES string. Like-named read-outs stand apart in the source and are kept apart here.

T3 sequence (P41145 whole entry): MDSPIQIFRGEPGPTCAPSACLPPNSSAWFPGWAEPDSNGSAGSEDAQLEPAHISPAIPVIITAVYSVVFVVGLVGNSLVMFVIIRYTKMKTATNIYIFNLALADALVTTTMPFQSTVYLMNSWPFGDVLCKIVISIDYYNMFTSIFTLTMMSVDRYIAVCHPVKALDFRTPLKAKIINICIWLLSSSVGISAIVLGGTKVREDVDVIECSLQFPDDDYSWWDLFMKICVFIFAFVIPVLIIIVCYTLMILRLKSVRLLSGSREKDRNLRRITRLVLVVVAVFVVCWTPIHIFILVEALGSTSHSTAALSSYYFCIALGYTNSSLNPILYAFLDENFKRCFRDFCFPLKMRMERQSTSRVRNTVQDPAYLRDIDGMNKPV
T2 sequence (P41145 whole entry): as above
T1 sequence (P41145 whole entry): as above

One may read the EC50 as the concentration needed to bring the measured effect to its halfway point. By IC50 is commonly meant the midpoint of a concentration-inhibition curve. On to `O=C(Cc1cccc(Cl)c1)N1CCN[C@H]2COC[C@@H](N3CCCC3)[C@@H]21` (single isomer, unassigned) [Example 5A24B], for which the Emax at 10 µM in assay [1] amounted to 0%. Moreover, in assay [2], the EC50 stood at 1.37 µM and the Emax is 102%. In addition, the IC50 in assay [3] (1.0 nM [3H]U69,593, 60 minutes at 30° C., read-out: Binding IC50) turned out to be 1.13 µM.

Take `CS(=O)(=O)N1CCN(C(=O)Cc2ccc(Cl)c(Cl)c2)[C@H]2[C@H]1COC[C@@H]2N1CCCC1` (single isomer, unassigned) [Example 5A44A]: the Emax at 10 µM in assay [1] was 80%. Further, in assay [2], the EC50 is 0.0034 µM and the Emax came out at 119%. Also, the IC50 in assay [3] came to 0.0054 µM.

As for `CS(=O)(=O)N1CCN(C(=O)Cc2ccc(Cl)c(Cl)c2)[C@H]2[C@H](N3CCCC3)COC[C@@H]21` (single isomer, unassigned) [Example 5A44B], the Emax at 10 µM in assay [1] worked out at 70%. Moreover, in assay [2], the EC50 is 0.0046 µM and the Emax is 105%. In addition, the IC50 in assay [3] was 0.018 µM.

Consider `O=C(Cc1ccc(Cl)c(Cl)c1)N1CCN(S(=O)(=O)C2CC2)[C@@H]2COC[C@H](N3CCCC3)[C@H]21` (single isomer, unassigned) [Example 5A52A], for which the Emax at 10 µM in assay [1] came to 60%. Moreover, in assay [2], the EC50 was 0.0017 µM and the Emax came to 119%. In addition, the IC50 in assay [3] turned out to be 0.0036 µM.

Consider `O=C(Cc1ccc(Cl)c(Cl)c1)N1CCN(S(=O)(=O)C2CC2)[C@H]2COC[C@@H](N3CCCC3)[C@@H]21` (single isomer, unassigned) [Example 5A52B], for which the Emax at 10 µM in assay [1] came to 25%. In assay [2], the concentration giving a half-maximal response (EC50) worked out at 0.018 µM and the Emax turned out to be 96%. Besides, the IC50 in assay [3] was 0.027 µM.

With `O=C(Cc1ccc(Cl)c(Cl)c1)N1CCN(Cc2ccccc2)[C@@H]2COC[C@H](N3CCCC3)[C@H]21` (single isomer, unassigned) [Example 5A53A], in assay [1], the Emax at 10 µM came to 80%. For the same molecule, in assay [2], the EC50 came to 0.018 µM and the Emax came to 80%. Further, the IC50 in assay [3] is 0.108 µM.

As for `O=C(Cc1ccc(Cl)c(Cl)c1)N1CCN(Cc2ccccc2)[C@H]2COC[C@@H](N3CCCC3)[C@@H]21` (single isomer, unassigned) [Example 5A53B], the Emax at 10 µM in assay [1] is 80%. Further, in assay [2], the EC50 was determined as 0.0048 µM and the Emax was determined as 58%. Besides, the IC50 in assay [3] came to 0.044 µM.

For the molecule `O=C(Cc1ccc(Cl)c(Cl)c1)N1CCN(CC2CCC2)[C@@H]2COC[C@H](N3CCCC3)[C@H]21` (single isomer, unassigned) [Example 5A55A], in assay [1] (maximal, normalized to U69,593, No stim = no stimulation at highest dose tested, 10,000 nM), the “β-arrestin coupling % efficacy” value was “No stim”. For the same molecule, in assay [2], the EC50 came out at 0.03 µM and the Emax was 84%. For the same molecule, the IC50 in assay [3] stood at 0.094 µM.

For `O=C(Cc1ccc(Cl)c(Cl)c1)N1CCN(CC2CCC2)[C@H]2COC[C@@H](N3CCCC3)[C@@H]21` (single isomer, unassigned) [Example 5A55B], the Emax at 10 µM in assay [1] was 80%. Moreover, in assay [2], the EC50 is 0.013 µM and the Emax amounted to 62%. Also, in assay [3], the IC50 amounted to 0.02 µM.

With `CC(C)CN1CCN(C(=O)Cc2ccc(Cl)c(Cl)c2)[C@H]2[C@H]1COC[C@@H]2N1CCCC1` [Example 5A71], the Emax at 10 µM in assay [1] worked out at 40%. Also, in assay [2], the 50% effective concentration (EC50) was 0.014 µM and the Emax was determined as 93%. In assay [3], the IC50 is 0.027 µM.
